Measurements: patent publication US8680052B1, “Methods of treating, reducing the incidence of, and/or preventing ischemic events” (The Medicines Company, priority 2013, dated 2014)
Values belong to the compound of their own block, whether it stands above or below them.

Tests used:
Assay type in all cases: in vivo
[1] = tested on: patients with atherosclerosis undergoing PCI; conditions: human, in vivo, 48 h
Protocol: The primary safety end point was severe bleeding not related to coronary-artery bypass grafting, according to the Global Use of Strategies to Open Occluded Coronary Arteries (GUSTO) criteria, at 48 hours. Several other bleeding definitions were also applied.

P2Y12 receptor [2] = molecular target: T1, P2Y12 receptor (Homo sapiens, UniProt Q9H244); assay: Example 2 substudy: platelet function by VerifyNow P2Y12 Assay
T1 construct: from tissue; host or cells: platelets in whole blood of patients
T1 sequence (Q9H244 whole entry): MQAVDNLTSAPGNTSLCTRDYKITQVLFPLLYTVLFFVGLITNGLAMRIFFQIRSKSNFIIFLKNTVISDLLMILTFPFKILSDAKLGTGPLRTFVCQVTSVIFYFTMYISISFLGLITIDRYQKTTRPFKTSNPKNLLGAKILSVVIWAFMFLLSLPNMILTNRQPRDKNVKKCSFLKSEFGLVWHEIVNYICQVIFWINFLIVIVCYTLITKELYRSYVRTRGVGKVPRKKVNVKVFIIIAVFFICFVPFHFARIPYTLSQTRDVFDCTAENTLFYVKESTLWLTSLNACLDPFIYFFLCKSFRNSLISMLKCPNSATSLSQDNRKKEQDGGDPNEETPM
Protocol: Platelet function parameters were measured using the VerifyNow® P2Y12 Assay (Accumetrics, San Diego, Calif.). Samples were taken before study drug administration, at approximately 2 hours (during cangrelor/placebo infusion), and 10 hours or next day following randomization.

P2Y12 receptor [3] = molecular target: T1, P2Y12 receptor; assay: Example 4: VerifyNow P2Y12 assay, platelet reactivity in PRU
Protocol: The study involved 12 patients who met the criteria of being 18-75 years of age, having coronary artery disease (CAD) documented by a previous MI or coronary revascularization, and taking 81 mg of aspirin daily. […] Use of non-steroidal anti-inflammatory agents was discouraged during study participation but not prohibited.
Each patient was administered a 30 μg/kg bolus of cangrelor followed immediately by a 2 hr infusion at a rate of 4.0 μg/kg/min. A loading dose of ticagrelor (180 mg) was given after 0.5 hr or 1.25 hr (n=6 for each). Blood for pharmacodynamic platelet function studies was taken after 0.5 or 1.25 hr (corresponding to the time of ticagrelor load, n=6 for each), and then at 1.75, 2, 2.25, 2.5, 2.75, 3, 4, and 5.25 hr. Patients were assigned randomly to receive either 6 (n=6) or 7 (n=6) doses of ticagrelor to be taken every 12 hours following the discontinuation of the infusion of cangrelor. On study day 5, each patient was administered a 30 μg/kg bolus of cangrelor followed immediately by a 2 hr infusion at a rate of 4.0 μg/kg/min. Blood for pharmacodynamic assessment was taken after 1 and 2 hr. Adverse events were queried throughout study participation that ended with a telephone interview performed on study day 10-12.
Pharmacodynamic assessment included light transmission aggregometry (LTA), VerifyNow® P2Y12 assay, vasodilator-stimulated phosphoprotein (VASP) index, and platelet activation measured with the use of flow cytometry. Assessment of LTA, VerifyNow®, and platelet activation with the use of flow cytometry was performed within 30 min of blood being taken. In the case of flow cytometry, samples were processed to fixation and then batched for analysis. For VASP, index samples were batched and processed as recommended by the vendor within 2 h of blood being taken. This approach limited the time from fixation of VASP index to flow analysis to less than 1 h.
LTA induced by 5 μM and 20 μM adenosine diphosphate (ADP) was quantified ex vivo (i.e. in non-adjusted platelet rich plasma). Platelet-poor plasma was set as 100% aggregation, and both maximal (peak) and terminal (at 300 s) aggregation were measured with a PAP4 aggregometer (BioData, Horsham, Pa.). VerifyNow® P2Y12 assay (Accumetrics Inc, San Diego, Calif.) that measures the effects of drugs on the P2Y12 receptor by activating platelets with prostaglandin El in addition to ADP was used in accordance with the instructions provided by the manufacturer. Platelet reactivity was expressed in P2Y12 reaction units (PRU). Activation of platelets was identified with the use of flow cytometry as previously described.^17. And to determine the VASP index, a commercially available kit (Diagnostica Stago, Inc, Parsippany NJ) was used. ^17 Schneider D J, Sobel B E. Streamlining the design of promising clinical trials: in-vitro testing of antithrombotic regimens and multiple agonists of platelet activation. Coron Artery Dis. 2009; 20:175-8.

[4] = reference 5.25 h, Ticagrelor at 0.5 h
[5] = reference 5.25 h, Ticagrelor at 1.25 h

SMILES: COC(=O)[C@H](c1ccccc1Cl)N1CCc2sccc2C1 [Clopidogrel, clopidogrel, reference compound]
Any blood transfusion [1]: 16/5527 (0.3) number/total number (percent) | GUSTO-defined bleeding, primary safety end point: severe or life-threatening bleeding [1]: 6/5527 (0.1) number/total number (percent) | GUSTO-defined moderate bleeding [1]: 13/5527 (0.2) number/total number (percent) | GUSTO-defined severe or moderate bleeding [1]: 19/5527 (0.3) number/total number (percent) | TIMI-defined major bleeding [1]: 5/5527 (0.1) number/total number (percent) | TIMI-defined major or minor bleeding [1]: 8/5527 (0.3) number/total number (percent) | TIMI-defined minor bleeding [1]: 3/5527 (0.1) number/total number (percent) | adverse events that led to discontinuation of the study drug [1]: 0.4% | rate of GUSTO-defined severe bleeding (primary safety end point) [1]: 0.11% | rate of adverse events related to treatment [1]: 19.1% | transient dyspnea [1]: 0.3% | median PRU (VerifyNow P2Y12 assay) (P2Y12 receptor [2]; 12-24 hours after discontinuation of the cangrelor infusion): 206 PRU | median PRU (VerifyNow P2Y12 assay) (P2Y12 receptor [2]; during the study drug infusion (approx. 2 hours)): 277 PRU

VerifyNow IPR (P2Y12 receptor [3]; 2.25 h, All): 89 ± 11 | VerifyNow PRU (P2Y12 receptor [3]; 2.25 h, All): 28 ± 28 PRU | VerifyNow IPR (P2Y12 receptor [3]; 2.25 h, Ticagrelor at 0.5 h): 90 ± 10 | VerifyNow PRU (P2Y12 receptor [3]; 2.25 h, Ticagrelor at 0.5 h): 28 ± 27 PRU | VerifyNow IPR (P2Y12 receptor [3]; 2.25 h, Ticagrelor at 1.25 h): 89 ± 14 | VerifyNow PRU (P2Y12 receptor [3]; 2.25 h, Ticagrelor at 1.25 h): 28 ± 32 PRU | VerifyNow IPR (P2Y12 receptor [3]; 2.5 h, All): 70 ± 31 | VerifyNow PRU (P2Y12 receptor [3]; 2.5 h, All): 76 ± 79 PRU | VerifyNow IPR (P2Y12 receptor [3]; 2.5 h, Ticagrelor at 0.5 h): 78 ± 24 | VerifyNow PRU (P2Y12 receptor [3]; 2.5 h, Ticagrelor at 0.5 h): 60 ± 64 PRU | VerifyNow IPR (P2Y12 receptor [3]; 2.5 h, Ticagrelor at 1.25 h): 62 ± 37 | VerifyNow PRU (P2Y12 receptor [3]; 2.5 h, Ticagrelor at 1.25 h): 93 ± 94 PRU | VerifyNow IPR (P2Y12 receptor [3]; 2.75 h, All): 83 ± 21 | VerifyNow PRU (P2Y12 receptor [3]; 2.75 h, All): 44 ± 50 PRU | VerifyNow IPR (P2Y12 receptor [3]; 2.75 h, Ticagrelor at 0.5 h): 84 ± 15 | VerifyNow PRU (P2Y12 receptor [3]; 2.75 h, Ticagrelor at 0.5 h): 44 ± 40 PRU | VerifyNow IPR (P2Y12 receptor [3]; 2.75 h, Ticagrelor at 1.25 h): 82 ± 27 | VerifyNow PRU (P2Y12 receptor [3]; 2.75 h, Ticagrelor at 1.25 h): 44 ± 62 PRU | VerifyNow IPR (P2Y12 receptor [3]; 3 h, All): 88 ± 19 | VerifyNow PRU (P2Y12 receptor [3]; 3 h, All): 31 ± 46 PRU | VerifyNow IPR (P2Y12 receptor [3]; 3 h, Ticagrelor at 0.5 h): 87 ± 16 | VerifyNow PRU (P2Y12 receptor [3]; 3 h, Ticagrelor at 0.5 h): 35 ± 42 PRU | VerifyNow IPR (P2Y12 receptor [3]; 3 h, Ticagrelor at 1.25 h): 88 ± 23 | VerifyNow PRU (P2Y12 receptor [3]; 3 h, Ticagrelor at 1.25 h): 28 ± 53 PRU | VerifyNow IPR (P2Y12 receptor [3]; 4 h, All): 96 ± 4 | VerifyNow PRU (P2Y12 receptor [3]; 4 h, All): 10 ± 10 PRU | VerifyNow IPR (P2Y12 receptor [3]; 4 h, Ticagrelor at 0.5 h): 97 ± 2 | VerifyNow PRU (P2Y12 receptor [3]; 4 h, Ticagrelor at 0.5 h): 7.3 ± 4.4 PRU | VerifyNow IPR (P2Y12 receptor [3]; 4 h, Ticagrelor at 1.25 h): 95 ± 5 | VerifyNow PRU (P2Y12 receptor [3]; 4 h, Ticagrelor at 1.25 h): 14 ± 14 PRU | VerifyNow IPR (P2Y12 receptor [3]; reference 5.25 h, All): 96 ± 4 | VerifyNow PRU (P2Y12 receptor [3]; reference 5.25 h, All): 9.5 ± 9.7 PRU | VerifyNow IPR (P2Y12 receptor [3]; [4]): 97 ± 2 | VerifyNow PRU (P2Y12 receptor [3]; [4]): 7.7 ± 5.3 PRU | VerifyNow IPR (P2Y12 receptor [3]; [5]): 96 ± 4 | VerifyNow PRU (P2Y12 receptor [3]; [5]): 11 ± 7 PRU
SMILES: CCCSc1nc(N[C@@H]2C[C@H]2c2ccc(F)c(F)c2)c2nnn([C@@H]3C[C@H](OCCO)[C@@H](O)[C@H]3O)c2n1 [ticagrelor]
